Laboratory results published in patent US10988522B2, “Proteolically resistant cyclotides with angiotensin 1-7 like activity” (University of Southern California, priority 2016, dated 2021).

Columns and labels:
human lung cancer cells = conditions: through activation of MAS1; cited from earlier work
recombinant human MAS1 = biological target: T1, recombinant human MAS1 (Homo sapiens, UniProt P04201); assay: MAS1 activation: cell-based fluorescence assay of NO release in CHO cells stably transfected with MAS1; conditions: for intracellular concentration of NO in the presence of MAS1 antagonist A779: A779 at 0.1 μM for 15 min before addition; for intracellular concentration of NO (fluorescence): no antagonist, 2 hours
T1 construct: expressed in transfected cells; host or cells: CHO cells, stably transfected with pTEJ-8 vector
T1 sequence (P04201 1-325): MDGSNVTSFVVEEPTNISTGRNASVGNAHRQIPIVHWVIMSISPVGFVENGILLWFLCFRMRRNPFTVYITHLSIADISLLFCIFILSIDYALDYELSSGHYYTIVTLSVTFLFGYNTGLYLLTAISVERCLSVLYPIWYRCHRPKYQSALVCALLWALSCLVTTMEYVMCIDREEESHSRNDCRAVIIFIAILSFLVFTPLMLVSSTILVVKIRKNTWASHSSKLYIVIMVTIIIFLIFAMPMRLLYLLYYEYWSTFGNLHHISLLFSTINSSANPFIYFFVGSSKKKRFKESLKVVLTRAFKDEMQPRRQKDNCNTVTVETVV
Procedure: CHO cells stably transfected with pTEJ-8 vector expressing recombinant human MAS1 clone are grown to confluency. After washing, cells are incubated for a short time in 700 μL of supplemented Tyrode's salts containing 10 μM 2-phenyl-4,4,5,5-tetramethylimidazoline-1-oxyl-3-oxide (PTIO), 100 μM 2,3-diaminonaftalene (DAN), and 1 mM L-arginine. When using antagonist for competition assays, cells are exposed to MAS1 antagonist A779 (D-Ala^7-AT 1-7) at 0.1 μM for 15 min before addition of the cyclotides to be tested. Different concentrations of the cyclotides to be analyzed are added to the cell medium and the plates are agitated for 1 min before being placed into the incubator for 2 hours. After 2 hours, the cellular supernatants are transferred to opaque 96 well plates, and the amount of released NO is measured by fluorescence (λex=380 nm, λem=425 nm).

[1] = system: human lung adenocarcinoma xenografts; conditions: cited from earlier work
cyclooxygenase 1 (COX-1) = conditions: same xenograft tumor; cited from earlier work
cyclooxygenase-2 (COX-2) = conditions: xenograft tumor; cited from earlier work
[2] = Procedure: This was accomplished by incubating the corresponding peptides in human serum at 37° C. The quantitative analysis of undigested polypeptides was performed using liquid chromatography coupled with tandem mass spectrometry (LC-MS/MS). Naturally occurring MCoTI-cyclotides present a very rigid structure, which makes them extremely stable to proteolytic degradation.
Human serum was spun down at 15,000 rpm for 10 min to separate the lipid components. Peptides (about 15 μg dissolved in 15 μl PBS) were mixed with 150 μl human serum and incubated in a 37° C. water bath. Aliquot samples (15 μL) were taken at different time points and serum protein were precipitated with about 70% MeCN at 4° C. for 10 min. The supernatant was separated, lyophilized, dissolved in 5% MeCN in water containing 0.1% formic acid, and analyzed by HPLC-MS/MS.

CC[C@H](C)[C@H](NC(=O)[C@H](Cc1ccc(O)cc1)NC(=O)[C@@H](NC(=O)[C@H](CCCNC(=N)N)NC(=O)[C@@H](N)CC(=O)O)C(C)C)C(=O)N[C@@H](Cc1c[nH]cn1)C(=O)N1CCC[C@H]1C(=O)O [AT1-7, DRVYIHP]
serum-stimulated growth of human lung cancer cells (human lung cancer cells): reduce serum-stimulated growth of human lung cancer cells both in vitro and in vivo | intracellular concentration of NO in the presence of MAS1 antagonist A779 (recombinant human MAS1; MAS1-transfected CHO cells): A similar profile was obtained | intracellular concentration of NO (fluorescence) (recombinant human MAS1; MAS1-transfected CHO cells): increase the intracellular concentration of NO in a dose dependent manner | tumor growth [1]: inhibit tumor growth | COX-1 activity (cyclooxygenase 1 (COX-1)): no effect | COX-2 activity (cyclooxygenase-2 (COX-2)): reduction in cyclooxygenase-2 (COX-2) activity | τ1/2 in human serum [2]: 44 ± 3 min

GGVCPKILQRCRRDSDCPGACICRGNGYCGSGXRVYIHE [MCo-AT1-7, MCoTI-I cyclotide with AT1-7-derived peptide (Asp1 to diaminopropionic acid, Pro7 to Glu) grafted onto loop 6 via two isopeptide bonds]
MAS1 agonist activity (summary statement) (recombinant human MAS1; MAS1-transfected CHO cells): potent MAS1 agonist, with similar activity to that of the peptide AT1-7 | intracellular concentration of NO in the presence of MAS1 antagonist A779 (recombinant human MAS1; MAS1-transfected CHO cells): no increase in the intracellular concentration of NO was detected | intracellular concentration of NO (fluorescence) (recombinant human MAS1; MAS1-transfected CHO cells): increase the intracellular concentration of NO in a dose dependent manner | activity relative to that of peptide AT1-7 (recombinant human MAS1; at 10 nM, NO release assay): about 90%
